Laboratory results: article PMC4435547 (The journal of maternal-fetal & neonatal medicine : the …, 2009)

How the values were obtained:
[1] = tested on: dually perfused human placental lobule
placenta = details: cited from earlier work

| SMILES | effect of HSA, AAG or their combination in the perfusion medium on transfer of AP across the placental lobule ([1]; HSA, AAG, or their combination) | Antipyrine Fetal/Maternal concentration ratio ([1]; human, 20 µg/mL) | fetal/maternal concentration ratio in presence of HSA versus absence of the protein (placenta) |
| --- | --- | --- | --- |
| Cc1cc(=O)n(-c2ccccc2)n1C [Antipyrine, antipyrine] | not affected | 0.84 ± 0.11 | – |
| COc1ccc(Cl)cc1C(=O)NCCc1ccc(S(=O)(=O)NC(=O)NC2CCCCC2)cc1 [glyburide] | – | – | significantly lower |
